Laboratory results published in patent US10054583B2, “Nuclear factor-erythroid 2 related factor 2 (NRF2) biosensors and modulators of NRF2” (TEMPLE UNIVERSITY OF THE COMMONWEALTH SYSTEM OF HIGHER …, priority 2012, dated 2018).
Entries after “also recorded” stand apart in the source; their conditions may differ.

Columns and labels:
Type in all cases: cell-based
[1] = tested on: Nrf2 translation (entire Nrf2 ORF mRNA); test: Western blot of Nrf2 translation in HEK 293T cells transfected with Nrf2 construct lacking amino acids 17-32; details: for Nrf2 translation (Nrf2 protein expression by blot): FIG. 3C / FIG. 4, HEK 293T cells, Nrf2 construct lacking amino acids 17-32 (no Keap1-mediated degradation)
From the text: (§1) FIGS. 3A to 3D show the construction of a translation reporter system to identify compounds that derepress Nrf2 translation. FIG. 3A is a schematic representation showing that the sequence of the firefly luciferase reporter gene was fused with the Seg3 fragment to create a translation reporter system i.e. a biosensor for Nrf2. […] A small library of 127 compounds containing more than 80 known antioxidants was screened to identify potential activators of Nrf2 translation. […] HEK 293T cells were transfected with a construct a Nrf2 lacking amino acids 17-32 to prevent the degradation mediated by Keap1.
HEK293T cells were transfected with an Nrf2 construct lacking amino acids that are required for KEAP1 mediated degradation. 24 hours later the cells were treated with Apigenin in incremental doses to evaluate Nrf2 translation activation by using Western blotting.

[2] = tested on: translation of Luciferase Reporter under translational control mediated by Sg3 of Nrf2; test: Nrf2 translation biosensor screen: firefly luciferase reporter fused with Seg3, stop codons in between; library of 127 compounds; details: FIG. 3B; screen of library of 127 compounds
From the text: as §1
A construct containing the luciferase gene fused with the Seg3 with stop codons in between the two fragments was developed. A library of 127 well known antioxidants was screened.
A stop codon is indicated with bold letters and a dark grey shade. The sequence corresponding to sg3 is indicated in the light grey shade area. The sequence was expressed using a plasmid with a CMV promoter.

[3] = tested on: Nrf2; test: Nuclear translocation of Nrf2: subcellular fractionation and Western blot of HEK293T cells transfected with wildtype Nrf2; details: FIG. 6; HEK293T cells with wildtype Nrf2, harvested 12 hours after treatment, cytoplasm vs nucleus
Experimental: HEK293T cells were transfected with a plasmid containing the wildtype sequence of Nrf2. After 24 hours the cells were treated with Apigenin. After additional 12 hours, the cells were harvested and subjected to subcellular fractionation. The presence of Nrf2 in the cytoplasm and nucleus was evaluated using Western blotting. Additionally, tubulin and histone 3 were identified by Western blot to validate the subcellular fractionation.

| Compound | Nrf2 translation (Nrf2 protein expression by blot) [1] | translation of the Luciferase Reporter under translational control mediated by Sg3 [2] | Nrf2 translation (Nrf2 protein expression by blot) ([1]; listed as apigenin) | Nrf2 translation activation, dose dependence ([1]; FIG. 5, HEK293T cells, treated 24 hours after transfection with incremental doses, Western blotting) | nuclear translocation of Nrf2 [3] |
| --- | --- | --- | --- | --- | --- |
| O=c1cc(-c2ccc(O)c(O)c2)oc2cc(O)cc(O)c12 [luteolin] | increase the translation of Nrf2 |  |  |  |  |
| CC(C)(C)c1cc(O)ccc1O [TBHQ] | no effect |  |  |  |  |
| Oc1ccc(C=Cc2cc(O)cc(O)c2)cc1 [resveratrol] | potent inducers of Nrf2 translation | promoted the translation of Nrf2; also recorded: increased the translation |  |  |  |
| C[S+]([O-])CCCCN=C=S (centres unmarked) [sulforaphane] | no effect |  |  |  |  |
| O=c1cc(-c2ccc(O)cc2)oc2cc(O)cc(O)c12 [Apigenin] | potent activator of NRF2 translation | promoted the translation of Nrf2; also recorded: increased the translation | potent inducers of Nrf2 translation; also recorded: most potent inducer of Nrf2 translation | activates Nrf2 translation in a dose-dependent manner | nuclear translocation of Nrf2 |
| O=c1c(O)c(-c2ccc(O)c(O)c2)oc2cc(O)cc(O)c12 [quercetin] | increase the translation of Nrf2 |  |  |  |  |
